Assay results reported in US6410792B1, “Amide derivatives and methods for using the same as selective neuropeptide Y receptor antagonists” (Bayer Corporation, priority 1997, dated 2002).
pIC50: −log10 of the molar value. Structures can show the parent of a compound that is named as a salt. Where two headings read alike, the source gives them in different places.

Assays:
[1] = target: human Y4/PP1 receptor (Homo sapiens, UniProt P50391); test: Human Y4/PP1 receptor binding assay ([125I]human PP, membrane protein)
Outline: (§1)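 Filtration binding with membrane protein and drug dilution, 2 h at room temperature with mixing, radioactivity counted by gamma or scintillation. Y2: 25 pM [125I]PYY in Krebs-Ringer bicarbonate pH 7.4 with 0.01% BSA, nonspecific by 1 μM NPY. Y4/PP1: 50 pM [125I]hPP in HEPES-buffered saline pH 7.4 with protease inhibitors and 0.3% BSA, nonspecific by 1 μM hPP.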

[2] = target: T1, Human NPY1 receptor (Homo sapiens, UniProt P25929); test: Human NPY1 receptor binding assay ([125I]PYY, SK-N-MC cells)
T1 construct: host or cells: SK-N-MC cells
T1 sequence (P25929 1-384): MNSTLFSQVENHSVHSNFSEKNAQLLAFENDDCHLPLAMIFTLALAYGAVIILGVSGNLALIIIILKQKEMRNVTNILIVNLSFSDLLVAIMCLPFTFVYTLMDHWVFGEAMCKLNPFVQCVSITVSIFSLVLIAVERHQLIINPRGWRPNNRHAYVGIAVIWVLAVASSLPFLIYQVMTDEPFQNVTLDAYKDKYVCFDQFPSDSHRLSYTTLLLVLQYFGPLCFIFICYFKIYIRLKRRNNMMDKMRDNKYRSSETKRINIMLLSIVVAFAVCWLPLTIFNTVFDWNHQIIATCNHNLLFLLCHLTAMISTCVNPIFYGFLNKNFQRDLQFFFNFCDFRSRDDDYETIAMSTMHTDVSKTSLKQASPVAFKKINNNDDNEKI
Outline: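 Whole-cell competition with ~50 pM [125I]PYY on SK-N-MC monolayers, 3 h at room temperature after 30 min preincubation in HEPES-buffered (pH 7.3) serum-free DMEM containing protease inhibitors. Gamma counting of cell lysates; 1 μM NPY gave nonspecific binding.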

[3] = target: T2, Rat NPY5 receptor (Rattus norvegicus, UniProt Q63634); test: Rat NPY5 cyclase assay (in vitro functional assay, forskolin-stimulated adenylate cyclase, cAMP); type: cell-based; conditions: 10 μM, percentage of forskolin-stimulated adenylate cyclase; for activity at 10 µM: 20 min, read-out: rNPY5 % FSAC (10 μM)
T2 sequence (Q63634 1-445): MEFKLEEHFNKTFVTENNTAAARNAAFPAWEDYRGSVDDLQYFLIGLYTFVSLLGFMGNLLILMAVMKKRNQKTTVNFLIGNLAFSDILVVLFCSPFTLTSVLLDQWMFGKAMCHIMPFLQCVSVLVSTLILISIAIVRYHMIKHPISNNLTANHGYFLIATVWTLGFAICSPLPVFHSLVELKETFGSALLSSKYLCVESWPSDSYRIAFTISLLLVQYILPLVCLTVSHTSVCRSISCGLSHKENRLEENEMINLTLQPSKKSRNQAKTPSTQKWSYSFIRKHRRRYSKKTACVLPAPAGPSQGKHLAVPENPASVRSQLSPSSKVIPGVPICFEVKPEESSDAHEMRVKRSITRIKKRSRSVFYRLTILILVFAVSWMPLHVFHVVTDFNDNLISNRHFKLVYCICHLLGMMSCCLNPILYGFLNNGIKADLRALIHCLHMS
Description: D. Rat NYP5 Cyclase Assay (In Vitro Functional Assay)
Cells stably expressing the rat NPY5 receptor are resuspended in serum-free DMEM containing 10 mM HEPES (pH 7.4) and 1 mM isobutylmethylxanthine (IBMX). […] forskolin and drug dilution are then added to the cells. After a 20 minute incubation of the samples at 37° C, the assay is stopped by placing the samples in boiling water for 3 minutes. The cAMP produced in each sample is quantitated with a radioimmunoassay kit (NEN DuPont). Data are expressed as a percentage of forskolin-stimulated adenylate cyclase.

[4] = target: T3, Human NPY5 receptor (Homo sapiens, UniProt Q15761); test: Human NPY5 receptor binding assay ([125I]PYY, membrane protein)
T3 sequence (Q15761 1-445): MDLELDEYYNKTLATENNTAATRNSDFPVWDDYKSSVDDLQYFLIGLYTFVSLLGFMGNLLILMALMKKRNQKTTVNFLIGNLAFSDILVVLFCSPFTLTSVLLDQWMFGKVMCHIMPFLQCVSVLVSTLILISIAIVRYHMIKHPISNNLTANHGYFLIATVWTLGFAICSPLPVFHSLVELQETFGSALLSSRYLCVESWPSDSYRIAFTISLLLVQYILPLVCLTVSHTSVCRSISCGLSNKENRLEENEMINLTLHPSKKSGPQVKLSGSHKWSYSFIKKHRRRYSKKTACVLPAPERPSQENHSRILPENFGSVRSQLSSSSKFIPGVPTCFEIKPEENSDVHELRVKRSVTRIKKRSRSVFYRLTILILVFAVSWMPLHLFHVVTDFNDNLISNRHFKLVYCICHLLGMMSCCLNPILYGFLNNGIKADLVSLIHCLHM
Outline: (§2)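 Compounds compete with porcine [125I]PYY (75-100 pM) for receptor sites on membrane protein over a 2 hour room-temperature incubation at pH 7.4. Unlabelled PYY at 1 μM defines nonspecific binding, and filter-retained radioactivity gives the read-out.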

[5] = target: T2, Rat NPY5 receptor; test: Rat NPY5 receptor binding assay ([125I]PYY, membrane protein)
Outline: as §2

[6] = target: T4, Y2 receptor (Homo sapiens, UniProt P49146); test: Y2 receptor binding assay ([125I]PYY, membrane protein); conditions: [125I]PYY, membrane protein; read-out: hNPY2 IC50
T4 sequence (P49146 1-381): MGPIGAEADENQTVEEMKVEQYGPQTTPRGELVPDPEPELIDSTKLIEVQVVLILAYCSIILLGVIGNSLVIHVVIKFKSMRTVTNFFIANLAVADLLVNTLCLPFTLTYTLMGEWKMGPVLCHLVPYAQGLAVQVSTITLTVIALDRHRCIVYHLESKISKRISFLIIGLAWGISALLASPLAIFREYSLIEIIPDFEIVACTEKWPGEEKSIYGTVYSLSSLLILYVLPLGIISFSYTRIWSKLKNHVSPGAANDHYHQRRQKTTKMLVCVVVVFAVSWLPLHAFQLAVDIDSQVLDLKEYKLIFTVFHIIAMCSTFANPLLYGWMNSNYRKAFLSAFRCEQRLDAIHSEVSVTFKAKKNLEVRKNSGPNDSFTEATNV
Outline: as §1

[7] = [125I]human PP, membrane protein, read-out: hNPY4 IC50
[8] = [125I]PYY, SK-N-MC cells, read-out: hNPYI IC50
[9] = [125I]PYY, read-out: hNPY5 IC50
[10] = [125I]PYY, read-out: rNPY5 IC50

human Y4/PP1 receptor, sequence (P50391 whole entry): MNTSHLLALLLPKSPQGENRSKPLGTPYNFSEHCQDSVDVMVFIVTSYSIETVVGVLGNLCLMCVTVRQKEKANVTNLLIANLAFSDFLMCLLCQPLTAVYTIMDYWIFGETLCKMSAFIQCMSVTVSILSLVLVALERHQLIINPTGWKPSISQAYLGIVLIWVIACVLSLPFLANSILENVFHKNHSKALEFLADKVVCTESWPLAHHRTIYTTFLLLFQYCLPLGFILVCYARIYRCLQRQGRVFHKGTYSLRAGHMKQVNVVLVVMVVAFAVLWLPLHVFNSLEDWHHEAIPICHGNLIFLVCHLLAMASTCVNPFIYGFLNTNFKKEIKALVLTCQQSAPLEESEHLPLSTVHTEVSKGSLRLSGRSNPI

Structure (SMILES): O=C(CN1CCC(n2c(=O)[nH]c3ccccc32)CC1)Nc1ccc(C(F)(F)F)cc1 [Compound 356, 2-[4-(2-Oxo-2,3-dihydro-benzoimidazol-1-yl)-piperidin-1-yl]-N-(4-trifluoromethyl-phenyl)-acetamide, reference compound]
- pIC50 [1, 7]: < 5.30
- pIC50 [2, 8]: < 5.30
- activity at 10 µM [3]: 105%
- pIC50 [4, 9]: 6.59
- pIC50 [5, 10]: 6.57
- pIC50 [6]: < 5.30

Structure (SMILES): O=C(CN1CCCC1C(O)(c1ccccc1)c1ccccc1)Nc1ccc(C2CCCCC2)cc1 (stereo not drawn) [Compound 296, N-(4-Cyclohexyl-phenyl)-2-[2-(hydroxy-diphenyl-methyl)-pyrrolidin-1-yl]-acetamide; compound with oxalic acid]
- pIC50 [1, 7]: < 5.30
- pIC50 [2, 8]: < 5.30
- activity at 10 µM [3]: 98%
- pIC50 [4, 9]: 7.32
- pIC50 [5, 10]: 7.37
- pIC50 [6]: < 5.30

Structure (SMILES): O=C(CN1CCC(n2c(=O)[nH]c3ccccc32)CC1)Nc1ccc([N+](=O)[O-])c(Cl)c1 [Compound 357, N-(3-Chloro-4-nitro-phenyl)-2-[4-(2-oxo-2,3-dihydro-benzoimidazol-1-yl)-piperidin-1-yl]-acetamide, reference compound]
- pIC50 [1, 7]: < 5.30
- pIC50 [2, 8]: < 5.30
- activity at 10 µM [3]: 112%
- pIC50 [4, 9]: 6.62
- pIC50 [5, 10]: 6.64
- pIC50 [6]: < 5.30

Structure (SMILES): O=C(CN1CCC(n2c(=O)[nH]c3ccccc32)CC1)Nc1ccc(N=Nc2ccccc2)cc1 [Compound 349, 2-[4-(2-Oxo-2,3-dihydro-benzoimidazol-1-yl)-piperidin-1-yl]-N-(4-phenylazo-phenyl)-acetamide, reference compound]
- pIC50 [1, 7]: < 5.30
- pIC50 [2, 8]: < 5.30
- activity at 10 µM [3]: 100%
- pIC50 [4, 9]: 6.86
- pIC50 [5, 10]: 6.78
- pIC50 [6]: < 5.30

Structure (SMILES): CC(=O)c1ccc(NC(=O)CN2CCC(n3c(=O)[nH]c4ccccc43)CC2)cc1 [Compound 354, N-(4-Acetyl-phenyl)-2-[4-(2-oxo-2,3-dihydro-benzoimidazol-1-yl)-piperidin-1-yl]-acetamide, reference compound]
- pIC50 [1, 7]: < 5.30
- pIC50 [2, 8]: < 5.30
- activity at 10 µM [3]: 98%
- pIC50 [4, 9]: 6.84
- pIC50 [5, 10]: 6.87
- pIC50 [6]: < 5.30

Structure (SMILES): O=C(CN1CCN(c2ccccc2Cl)CC1)Nc1ccc(C2CCCCC2)cc1.O=C(O)C(=O)O [Compound 299]
- pIC50 [1, 7]: < 5.30
- pIC50 [2, 8]: < 5.30
- rNPY5 % FSAC (10 μM) [3]: 103%
- pIC50 [4, 9]: 6.85
- pIC50 [5, 10]: 6.80
- pIC50 [6]: < 5.30

Structure (SMILES): CCOc1ccc(NC(=O)CN2CCC(n3c(=O)[nH]c4ccccc43)CC2)c2ccccc12 [Compound 346, N-(4-Ethoxy-naphthalen-1-yl)-2-[4-(2-oxo-2,3-dihydro-benzoimidazol-1-yl)-piperidin-1-yl]-acetamide, reference compound]
- pIC50 [1, 7]: < 5.30
- pIC50 [2, 8]: < 5.30
- activity at 10 µM [3]: 105%
- pIC50 [4, 9]: 7.09
- pIC50 [5, 10]: 7.20
- pIC50 [6]: < 5.30

Structure (SMILES): CCCOC1(c2ccccc2)CCN(CC(=O)Nc2ccc(C3CCCCC3)cc2)CC1 [Compound 294, N-(4-Cyclohexyl-phenyl)-2-(4-phenyl-4-propoxy-piperidin-1-yl)-acetamide; hydrochloride]
- pIC50 [1, 7]: < 5.30
- pIC50 [2, 8]: < 5.30
- activity at 10 µM [3]: 101%
- pIC50 ([4]; hNPY5 IC50, [125I]PYY): 7.29
- pIC50 ([5]; rNPY5 IC50, [125I]PYY): 7.30
- pIC50 [6]: < 5.30

Structure (SMILES): N#CC1(c2ccccc2)CCN(CC(=O)Nc2ccc(C3CCCCC3)cc2)CC1 [Compound 295, 2-(4-Cyano-4-phenyl-piperidin-1-yl)-N-(4-cyclohexyl-phenyl)-acetamide; hydrochloride]
- pIC50 [1]: < 5.30
- pIC50 [2]: < 5.30
- activity at 10 µM [3]: 101%
- pIC50 [4, 9]: 8.33
- pIC50 ([5]; rNPY5 IC50, [125I]PYY): 8.35
- pIC50 [6]: < 5.30

Structure (SMILES): O=C(CN1CCC(n2c(=O)[nH]c3ccccc32)CC1)Nc1ccc(Br)c(Cl)c1 [Compound 342, N-(4-Bromo-3-chloro-phenyl)-2-[4-(2-oxo-2,3-dihydro-benzoimidazol-1-yl)-piperidin-1-yl]-acetamide, reference compound]
- pIC50 [1, 7]: < 5.30
- pIC50 [2, 8]: < 5.30
- activity at 10 µM [3]: 105%
- pIC50 [4, 9]: 6.56
- pIC50 [5, 10]: 6.43
- pIC50 [6]: < 5.30

Structure (SMILES): CCc1cc(Br)c(NC(=O)CN2CCC(n3c(=O)[nH]c4ccccc43)CC2)c(Br)c1 [Compound 330, N-(2,6-Dibromo-4-ethyl-phenyl)-2-[4-(2-oxo-2,3-dihydrobenzoimidazol-1-yl)-piperidin-1-yl]-acetamide, reference compound]
- pIC50 [1, 7]: < 5.30
- pIC50 [2, 8]: < 5.30
- activity at 10 µM [3]: 99%
- pIC50 [4, 9]: 6.36
- pIC50 [5, 10]: 6.59
- pIC50 [6]: < 5.30

Structure (SMILES): Cc1ccc(C2(O)CCN(CC(=O)Nc3ccc(C4CCCCC4)cc3)CC2)cc1 [Compound 298, N-(4-Cyclohexyl-phenyl)-2-(4-hydroxy-4-p-tolyl-piperidin-1-yl)-acetamide; hydrochloride]
- pIC50 [1, 7]: < 5.30
- pIC50 [2, 8]: < 5.30
- activity at 10 µM [3]: 103%
- pIC50 ([4]; hNPY5 IC50, [125I]PYY): 7.52
- pIC50 ([5]; rNPY5 IC50, [125I]PYY): 7.36
- pIC50 [6]: < 5.30

Structure (SMILES): Cc1ccc(NC(=O)CN2CCC(n3c(=O)[nH]c4ccccc43)CC2)cc1 [Compound 359, 2-[4-(2-Oxo-2,3-dihydro-benzoimidazol-1-yl)-piperidin-1-yl]-N-p-tolyl-acetamide, reference compound]
- pIC50 [1, 7]: < 5.30
- pIC50 [2, 8]: < 5.30
- activity at 10 µM [3]: 104%
- pIC50 [4, 9]: 5.89
- pIC50 [5, 10]: 5.92
- pIC50 [6]: < 5.30

Structure (SMILES): O=C(CN1CCC(O)(Cc2ccccc2)CC1)Nc1ccc(C2CCCCC2)cc1 [Compound 314, 2-(4-Benzyl-4-hydroxy-piperidin-1-yl)-N-(4-cyclohexyl-phenyl)-acetamide; hydrochloride]
- pIC50 [1, 7]: < 5.30
- pIC50 [2, 8]: < 5.30
- activity at 10 µM [3]: 110%
- pIC50 [4, 9]: 6.89
- pIC50 [5, 10]: 7.00
- pIC50 [6]: < 5.30
